Results as given in patent US20250302751A1, “FORMULATIONS FOR ADM[…], norLAAM AND dinorLAAM AND METHODS OF THEIR USE TO TREAT OPIOID USE DISORDER” (VIRGINIA COMMONWEALTH UNIVERSITY, priority 2022, published 2025).
Read-outs that look alike come from different tables or passages of the source.

How the values were obtained:
[1] = Plasma pharmacokinetics of LAAM in rabbits (intravenous, oral, buccal); details: rabbit
Protocol: Twenty-four New Zealand white rabbits of mixed gender (weighing 3.6-4.0 kg) were obtained from ENVIGO and used in this study. […] All animal protocols were approved by the Institutional Animal Care and Use Committee at the Virginia Commonwealth University. […] Rabbits were anesthetized following an intramuscular injection of ketamine (50 mg/kg) and xylazine (5-7 mg/kg), followed by applying buccal films (1 mg/kg) into the buccal pouch. […] An oral solution (1 mg/kg) was administered by an oral syringe (1 mL), followed by an injection of ketamine/xylazine. After anesthesia, a catheter was inserted via the marginal ear vein for blood collection before dosing and at pre-determined time points (30 min before and at 5, 15, 30 min, and 1, 2, 3, 4, 8, 12, 24, 48, 72, 96, and 120 h) following administration. Eppendorf tubes contained EDTA (0.5 M) to prevent blood coagulation. Blood samples were placed on ice immediately following the collection for no longer than 5 min, plasma was separated by centrifugation (3000 g, at 0° C. for 3 min) and stored at −80° C. until analysis. At the endpoint (120 h), all animals were sacrificed. Urine, interest tissues (buccal mucosa, kidney, spleen, liver, gallbladder, muscle, brain, and spinal cord, mesenteric fat, perirenal fat, neck fat, inguinal fat) were harvested and stored at −80° C. until analysis. The buccal mucosa tissues and control in contact with fiber film formulations were collected for histopathological analysis using H&E staining. […] Non-compartmental analysis (NCA) was applied to calculate pharmacokinetic parameters derived from plasma concentration-time profiles. The absolute bioavailability was subsequently calculated by comparing respective AUCs, as shown by the following equation: […]

[2] = weak base; cited from earlier work
[3] = humans; cited from earlier work
[4] = rats; cited from earlier work
[5] = high permeability according to the FDA; cited from earlier work
[6] = both, New Zealand white, plasma, iv, 0.8 mg/kg
[7] = both, New Zealand white, plasma, po, 1 mg/kg

Compound	AUC(0-inf) [1, 6]	AUC(0-t) [1, 6]	C0 [1, 6]	Vd [1, 6]	clearance [1, 6]	AUC(0-inf) [1, 7]	AUC(0-t) [1, 7]	Cmax [1, 7]	Tmax [1, 7]	LAAM F (%), bioavailability, calculated by AUCinf ([1]; LAAM oral solution 1 mg/kg)	pKa [2]	Oral bioavailability (Foral %) [3]	Oral bioavailability (Foral %) [4]	Permeability of model drug [5]
CC[C@H](OC(C)=O)C(C[C@H](C)N(C)C)(c1ccccc1)c1ccccc1 [LAAM, [(3S,6S)-6-(dimethylamino)-4,4-diphenylheptan-3-yl]acetate]	284 ± 94.7 ng·h/mL	274 ± 91.6 ng·h/mL	288 ± 133 ng/mL	30.6 ± 6.3 L/kg	51.7 mL/min/kg	69.5 ± 10 ng·h/mL	65.7 ± 10.1 ng·h/mL	20.7 ± 3.4 ng/mL	24 ± 12 min	19.6 ± 2.8%	9.87	approximately 50%	~60%	–
COCCc1ccc(OCC(O)CNC(C)C)cc1 (centres unmarked) [metoprolol]	–	–	–	–	–	–	–	–	–	–	–	–	–	1.1e-05 cm/s
